From US12222310B2, “Magnesium ion selective membranes” (Siemens Healthcare Diagnostics Inc., priority 2015, dated 2025)

Assay: plasticizer lost from sensor membrane over use life, remaining plasticizer determined by UPLC
Format: physicochemical
Conditions: membranes in RAPIDPoint systems, at least 25 days, about 10 whole blood samples per business day
Procedure: Membrane formulations were prepared by using NPOE or ETH 217 plasticizers with polyvinylchloride, magnesium ionophore and lipohilic ion exchange salt. The materials were dissolved in a suitable organic solvent at a solids ratio of 10%. The solutions were deposited on the sensor substrates and the solvent allowed to evaporate yielding the formed membranes. The formulations were optimized to yield membranes with the best obtainable magnesium selectivity over calcium and were generally at least greater than 1:1.
Sensors were incorporated into RAPIDPoint systems (available from Siemens Healthcare Diagnostics Inc.) and tested over at least 25 days. During this time, sensors were calibrated with magnesium containing reagents and exposed to whole blood samples at approximately 10 per business day. In addition, magnesium containing quality control solutions were also run across least 25 days at least once every day. After testing the membranes were removed from the sensor substrate and the amount of remaining plasticizer was determined by UPLC and so the amount of plasticizer lost over time was calculated.

- % by wt Plasticizer Lost: 3.9%
Compound: CCCCCCCCCCCCOc1ccccc1[N+](=O)[O-] [ETH 217, 1-dodecyloxy-2-nitrobenzene]
